Source: patent publication US20250302080A1, “SWEETNESS AND/OR FLAVOR ENHANCER” (AJINOMOTO CO., INC., priority 2022, published 2025)

Assays:
[1] = Sensory evaluation of cafe au lait flavor intensity in sucrose-containing cafe au lait (Experimental Example 16); conditions: added alone, 3.0 points or more
Protocol: Negative control cafe au lait was prepared by the same method as in Experimental Example 6.
A sensory evaluation of the presence or absence of cafe au lait flavor intensity enhancement was performed for each sample by a panel of four experts according to the following evaluation criteria.
Cafe au lait flavor intensity was evaluated by 0.0 to 10.0 point based on the following reference samples (negative control (hereinafter referred to as NC) (0.0 point); reference 1 (hereinafter referred to as R1) (5.0 points); reference 2 (hereinafter referred to as R2) (10.0 points)). The average score (rounded to two decimal places) of each expert panelist was calculated. An average score of 3.0 points or more was considered to be functional. • NC (0.0 point): cafe au lait prepared by mixing starting materials at the blending rate in Table 6 in Experimental Example 6 (i.e., negative control cafe au lait). • R1 (5.0 points): drink with 0.15 g of sucrose added per 99.85 g of NC. • R2 (10.0 points): drink with 0.3 g of sucrose added per 99.70 g of NC.

[2] = Sensory evaluation of sweetness intensity in RebA solution (Experimental Example 12); conditions: added alone, 3.0 points or more
Protocol: A negative control RebA solution (0.073 wt % […] solution) was prepared by dissolving RebA in filtered water.
A sensory evaluation of sweetness intensity was performed for each sample by a panel of three experts according to the following evaluation criteria.
Sweetness intensity was evaluated by 0.0 to 10.0 points based on the following reference samples (negative control (hereinafter referred to as NC) (0.0 point); reference 1 (hereinafter referred to as R1) (5.0 points); reference 2 (hereinafter referred to as R2) (10.0 points)). The average score (rounded to two decimal places) of each expert panelist was calculated. An average score of 3.0 points or more was considered to be functional. • NC (0.0 point): 0.073 wt % RebA solution (solvent: filtered water) • R1 (5.0 points): 0.077 wt % RebA solution (solvent: filtered water) • R2 (10.0 points): 0.080 wt % RebA solution (solvent: filtered water)

[3] = Sensory evaluation of sweetness intensity in orange drink (Experimental Examples 1-5); conditions: added alone, score (average) of 3.0 points or more
Protocol: A negative control orange drink was prepared by diluting an orange drink (product name: Bireley's Orange, 20% wt % orange juice, Asahi Soft Drinks Co., Ltd.) 1.2 times with filtered water.
When the carbohydrate content of Bireley's Orange is calculated as the total sucrose content, the negative control orange drink contains 9.17 g of sucrose per 100 g.
(§1) A sensory evaluation of sweetness intensity was performed for each sample by a panel of four experts according to the following evaluation criteria.
(§2) Sweetness intensity was evaluated by 0.0 to 10.0 point based on the following reference samples (negative control (hereinafter referred to as NC) (0.0 point); reference 1 (hereinafter referred to as R1) (5.0 points); reference 2 (hereinafter referred to as R2) (10.0 points)). The average score (rounded to two decimal places) of each expert panelist was calculated. An average score of 3.0 points or more was considered to be functional. • NC (0.0 point): orange drink (trade name: Bireley's Orange, Asahi Soft Drinks Co., Ltd.) diluted 1.2 times with filtered water (i.e., negative control orange drink). • R1 (5.0 points): with 0.46 g of sucrose added per 99.54 g of NC. • R2 (10.0 points): with 0.92 g of sucrose added per 99.08 g of NC.
A sensory evaluation of sweetness intensity was performed for each sample by a panel of four experts according to the same evaluation criteria as in Experimental Example 1.

[4] = Sensory evaluation of orange flavor intensity in orange drink (Experimental Example 13); conditions: added alone, 3.0 points or more
Protocol: A negative control orange drink was prepared by the same method as in Experimental Example 1.
A sensory evaluation of orange flavor intensity was performed for each sample by a panel of three experts according to the following evaluation criteria.
as §2, with “Orange flavor” for “Sweetness”, “Orange)” for “Orange, Asahi Soft Drinks Co., Ltd.)”

[5] = Sensory evaluation of sweetness intensity in RebM solution (Experimental Examples 20-21); conditions: added alone, 3.0 points or more
Protocol: A negative control RebM solution (0.063 wt % RebM solution) was prepared by dissolving RebM in filtered water.
as §1
Sweetness intensity was evaluated by 0.0 to 10.0 points based on the following reference samples (negative control (hereinafter referred to as NC) (0.0 point); reference 1 (hereinafter referred to as R1) (3.0 points), reference 2 (hereinafter referred to as R2) (5.0 points); reference 3 (hereinafter referred to as R3) (10.0 points)). The average score (rounded to two decimal places) of each expert panelist was calculated. An average score of 3.0 points or more was considered to be functional. • NC (0.0 point): 0.063 wt % RebM solution (solvent: filtered water) • R1 (3.0 points): 0.063 wt % RebM solution (solvent: filtered water)+dodecanoic acid (1 ppb) • R2 (5.0 points): 0.066 wt % RebM solution (solvent: filtered water) • R3 (10.0 points): 0.069 wt % RebM solution (solvent: filtered water)
A sensory evaluation of sweetness intensity was performed for each sample by a panel of four experts according to the same evaluation criteria as in Experimental Example 20.

Row | SMILES | concentration at which a cafe au lait flavor-enhancing effect was confirmed [1] | concentration at which a sweetness-enhancing effect was confirmed [2] | concentration at which a sweetness-enhancing effect was confirmed [3] | concentration at which an orange flavor-enhancing effect was confirmed [4] | concentration at which a sweetness-enhancing effect was confirmed [5]
1 | CC1=C(O)C(=O)CC1 [cyclotene] | ≥ 0.1 ppb | 10 ppb | ≥ 0.1 ppb | ≥ 10 ppb | 10 ppb
2 | CCCCCCCCCC(=O)O [decanoic acid] | ≥ 0.01 ppb | 10 ppb | ≥ 0.1 ppb | ≥ 0.01 ppb | 10 ppb
3 | CC(C)CCC(=O)O [4-methylpentanoic acid] | ≥ 1 ppb | 100 ppb | ≥ 10 ppb | ≥ 10 ppb | 100 ppb
